Results from a melting point compilation (Tetko et al.; mined from patent text by program, amines drawn as free bases though some values may be those of a salt).

melting point [°C]	Structure (SMILES)
112 to 113	CCCSc1sc(C(N)=O)c2c1-c1c(cnn1C)CC2
65	CCCCOC(=O)COc1cc(F)c(-c2nn(C)c(C(F)(F)F)c2Cl)cc1[N+](=O)[O-]
58 to 60	COCC(=O)NCCC1CCCc2ccc(OC)cc21 (single isomer, unassigned; (-))
160	COc1ccc(Cn2c(=O)oc(=O)c3cccnc32)cc1
144 to 145	O=C(CC1CCNCC1)c1ccc(N2CCCC2)cc1
58 to 63	c1cc2c3c(c1)C1CCCCCCC1N3CCNC2 (stereo not drawn)
58 to 61	CCOC(=O)CSc1nccc(NCCc2ccc(Cl)cc2)n1
53 to 54	Cc1ccc2c(c1)C(=O)C(CC=O)C2 (racemic)
103 to 105	CCc1n[nH]c(CC)c1CCCCCCOc1ccc(OC)cc1[N+](=O)[O-]
63 to 66	COc1cc2c(cc1Nc1ncc(Cl)c(N[C@@H]3CCCC[C@H]3NS(C)(=O)=O)n1)N(C)CCN(C[C@@H](O)C(F)(F)F)C2
274 to 276	O=C(CCCOc1ccc(C=Cc2ccncc2)cc1)Nc1nnn[nH]1
70 to 72	CCOC(=O)c1c([N+](=O)[O-])ccc(OC)c1OC
253 to 255	Nc1sc2c(c1C(=O)c1ccc(I)c3ccccc13)CCC2
140 to 141	COCCCOc1ccc(/C=C(\OC)C(=O)O)c(Oc2ncc(C(F)(F)F)cc2Cl)c1
77 to 78	COC(=O)c1c(OC)ccc([N+](=O)[O-])c1OC
156 to 159	CCC1(CC)C(=O)Nc2ccc(-c3cccc(Cl)c3)cc21
142 to 143	Cc1ccc(OCC(=O)N(Cc2nc(-c3ccc(C)cc3)no2)C(C)C)cc1
190 to 193	CCOC(=O)c1c(O)c2ccc(C)nc2[nH]c1=O
222 to 224	CCNCC1CCN(c2c(F)cc3c(=O)c(C(=O)O)cn(NC)c3c2F)C1 (stereo not drawn)
124 to 127	CNC(=O)N1CCC(Oc2cccc(C(F)(F)F)c2)(c2ccccc2)CC1
189 to 191	CC1(C)Cc2c(N)c(Cl)cc(C(=O)NCCC34CCCN3CCC4)c2O1
41	COc1ccc(Br)cc1C1=NC(C)(C)CO1
221 to 222	COc1ccn2nc(-c3ccc(F)cc3)c(-c3ccc(=O)n(C)n3)c2c1

The next lines start with the molecule.

Structure (SMILES)	melting point [°C]
Cc1nc2ccc(S(=O)(=O)c3cccc4cnccc34)cc2nc1C	198 to 200
C=Cc1cc(S(=O)(=O)c2ccc(N)cc2)cc(N2CCCC2)n1	181 to 182
CCCCCCCCOc1cnc(-c2ccc(CCCCCC(C)OC(C)=O)cc2)nc1 (single isomer, unassigned; (+))	73 to 74
Cc1nc(Sc2cc(C(=O)O)ccn2)sc1CC(=O)O	212 to 214
O=C1OC2CC1(O)CC(O)C2O (stereo not drawn)	184 to 188
COc1cc(NC(=S)Nc2ccccc2)ccn1	138 to 141
O=C(O)CCCCCCC(O)C(=O)O (stereo not drawn)	86 to 92
O=c1c2ccccc2sn1CCN1CC=C(c2ccccc2)CC1	90 to 92
O=[N+]([O-])c1ccccc1-c1oc2ccc(CBr)cc2c1Br	118
O=C(O)CN(C(=O)CCSC(=O)c1ccccc1)[C@H]1CC[C@H](c2ccccc2)CC1	125 to 128
CN1CCN(c2nc3sc4c(NCCc5ccccn5)ncnc4c3c3c2COC(C)(C)C3)CC1	227 to 229
CC1(O)NC(=O)OC12CCNCC2 (stereo not drawn)	192 to 194
CCOC(=O)C=Cc1csc(Nc2ccccc2)n1	113 to 118
O=C1O[C@](CCc2cccc(O)c2)(C2CCCC2)CC(O)=C1N(c1ccccc1)c1ccccc1	90 to 92
Cc1oc(-c2ccccc2)nc1/C=C/c1ccc(/C=C/CO)cc1	165 to 166
CCCCCCCCCCCCCCCC(=O)OCC(F)(F)Cn1nc(C)c(-c2ccc3c(c2)NC(=O)CO3)c1-c1ccc(F)cc1	106
CCCCc1ncc(C=C2C(=O)N(CC(=O)OCC)c3ccccc32)n1Cc1ccc(C(=O)OC)cc1	118 to 119
CN1CCN(c2cc3ncc(C#N)c(Nc4ccc(F)c(Cl)c4)c3cc2[N+](=O)[O-])CC1	240 to 246
CC(=O)N(C(C)=O)c1c(C#N)cnn1-c1ccc(Cl)c(Cl)c1Cl	163 to 165
O=C(O)CN1C(=O)c2cccc([N+](=O)[O-])c2C1=O	200 to 202
CCOP(=O)(OCC)Oc1c(Br)c(C)nc(C)c1-c1ccc(Oc2ccc(OC(F)(F)F)cc2)cc1	80 to 81
Cc1c(C2=CCC(Cc3ccccc3)(N(C)C)CC2)[nH]c2ccc(F)cc12 (stereo not drawn)	62 to 65
CN1CCN(c2ncnc3oc(C4=CC=CN(N5CCOCC5)C4)c(-c4ccccc4)c23)CC1	255 to 257
CCOC(=O)c1c(C)cc2cnc(C)nc2c1C	84 to 86
CNC(=S)N(Cc1cccnc1)N(C)C	101 to 102

Structure (SMILES)	melting point [°C]
O=c1[nH]cc(F)c(=S)[nH]1	254 to 255
O=c1n(CC(F)(F)F)c2cc(F)ccc2n1C1CCNCC1	> 280
O=[N+]([O-])c1cnn(-c2c(Cl)cc(Cl)cc2Cl)c1Cl	78 to 84
COC(=O)N1OCC(=Cc2cc(C(C)(C)C)c(O)c(C(C)(C)C)c2)C1=O	191 to 192
CC(=O)Oc1cc(Cl)c(Cl)c(Cl)c1N1CC(O)CC1=O (stereo not drawn)	84 to 86
CN(C)CCc1[nH]c2ccccc2c1CSc1ccc(Cl)cc1	115 to 117
CCOC(=O)N1Cc2ccccc2P1(C)=O (stereo not drawn)	102 to 104
CC1CC(C)CC2(C1)OC(N)=NC2=O (stereo not drawn)	276 to 281
N#Cc1ccc(Cl)c(C=NO)c1	191 to 193
N=C(N)c1ccc2c(c1)N(CC(=O)c1ccc(Br)cc1)C(=O)CN2	145 to 150
Nc1ccc2nc(-c3ccccc3)sc2c1	200 to 201
CC(C)(C)c1ccc(C(=O)Nc2cn3cc(-c4ccoc4)ccc3n2)cc1	258 to 259
CCC1c2cccn2-c2cccc(C)c2N1S(=O)(=O)c1ccc(O)cc1 (stereo not drawn)	165 to 167
C=C(OCCc1nc(C(C)C)c(Sc2cc(Cl)cc(Cl)c2)n1C)C12CC3CC(CC(C3)C1)C2	114 to 116
CCOC(=O)NCCS(=O)CC(=O)O (stereo not drawn)	93.1 to 94.1
Cc1cc2c(cc1-c1cc(C=C3SC(=O)NC3=O)ccc1OC(F)(F)F)N(C)C(=O)CC2(C)C	182 to 184
Cc1cccc2cc3c(=O)n([C@@H](C)c4ccccc4)cc(C(=O)O)c3nc12	234 to 235
CCC(Cl)C(=O)Nc1c(C(=O)CC(=O)Nc2ccccn2)cccc1C(F)(F)F (stereo not drawn)	137
CC(C)c1nc(-c2ccccc2)nc(-c2ccc(F)cc2)c1C=O	127 to 129
CS(=O)(=O)N(CCc1ccccn1)CC(O)(Cn1cncn1)c1ccc(Cl)cc1Cl (stereo not drawn)	151 to 153
CC(C)n1nc(-c2c(-c3ccccc3)nc(N)nc2N2CCNCC2)ccc1=O	254 to 256
FC(F)(F)c1ccc(OC2CCCCO2)c(Sc2ccccc2)c1 (stereo not drawn)	72 to 73
O=C(NCc1ncco1)c1ccnc(N2CCN(Cc3ccc(F)cc3)C2=O)c1	148 to 150
O=C(OCc1ccccc1)c1cc(I)ccc1OCc1ccccc1	72 to 73
Cc1ccc2c(c1)Cn1nnnc1C(=S)N2	293 to 296
